# Counter-ions that a name gives are not always drawn. Like-named read-outs stand apart in the source and are kept apart here.
# Tests used:
# [1] = membranes incubated at pH 7.4 or pH 9.0 propranolol hydrochloride solutions prior to device preparation
# Description: The thickness of the membranes was 150 μm. Solid propranolol hydrochloride (2 mg) was placed without or with pH-adjusting additives (sodium phosphate/disodium phosphate in different proportions, Tris buffer) (2 mg) on a cut piece of silicone membrane. Another silicone membrane was glued on the former so that the drug and, if present, adjuvant were encapsulated inside two membranes.
# Propranolol release from the devices was studied in vitro at pH 7.4 in phosphate buffer from one side of the device in side-by-side diffusion cell. The exposed drug releasing surface was 0.7 cm^2. The released propranolol was analysed using reverse phase HPLC at 254 nm.
# [2] = Dissolution rate of propranolol hydrochloride by rotating disc method; assay type: physicochemical; details: 34° C., 550 mOsm, μ=0.3
# Source text: Each experiment was repeated five times.
# physchem = details: buffer, pH 7.3, aqueous buffer
# Description: Solubility of propranolol hydrochloride in buffer solutions at 34° C. was investigated by shaking propranolol hydrochloride suspension in the solvent. After equilibration, the saturated solutions were filtered and the concentration of propranolol in the filtrates was assayed by HPLC as described above. […] Each experiment was repeated five times.
# [3] = Release of timolol from silicone microspheres (rotating bottle method); assay type: physicochemical; details: for release of timolol from silicone microspheres after 1 hour: pH 7.4, 37° C., 100 mg microspheres
# Description: In silicone microspheres, timolol maleate was used as a model drug and sodium phosphate and Tris buffer as release-controlling adjuvants. Spray-dried drug and adjuvants were either simply mixed as power mixtures or they were spray dried together. To prepare silicone microspheres, the drug (2-20 wt %) and, if present, pH-adjusting agent (0-10 wt %) were mixed with the silicone elastomer (an amine resistant Dow Corning X7-3012 elastomer), and the curing agent was added. One part of the curing agent is mixed in ten parts of the polymer. Vulcanization of the X7-3012 elastomers is based on a platinum catalyzed addition (hydrosilylation) reaction. Two grams of the drug-polymer mixture was dispersed in 35 grams of liquid paraffin using an overhead stirrer at 190 rpm and 22° C. The temperature was raised to 50° C. in 1 hour. After 3 hours, the heating was stopped, and the mixture gradually cooled back to 22° C. […] Microparticles were separated from paraffin by filtration, washed with n-hexane and dried at room temperature. The mean particle size of the microspheres was 150±50 μm (mean±SD) (FIG. 14) and the entrapment efficiency of timolol maleate was 60-75%. Release of timolol from the silicone microspheres was studied using the rotating bottle method (NF XIV) in pH 7.4 phosphate buffer at 37° C. The volume of dissolution medium was 3 ml and the amount of microspheres 100 mg. The release timolol was analysed using reverse phase HPLC at 294 nm.
SMILES,initial lag time before steady drug release [1],"dissolution rate, pH 7.3 versus pH 9.4 [2]",dissolution rate ([2]; pH of dissolution medium raised from 1.6 to 7.3),"rates of propranolol release, effect of osmotic pressure (138 mOsm to 950 mOsm at pH 7.4)","rates of propranolol release, effect of osmotic pressure (295 mOsm to 960 mOsm at pH=4.6)","release profile and rate of propranolol release, effect of ionic strength (ionic strength 0.15 to 0.3)","drug release rate, effect of the surrounding pH (pH 1.6, 4.6, 7.3, 9.4)",solubility (physchem) [mg/mL],release of timolol from silicone microspheres after 1 hour ([3]; 2 wt % drug loading) [µg],"release relative to absence of the pH-adjusting agent ([3]; 2 wt % timolol, 1 wt % Tris)","effect on release rate of adding disodium phosphate ([3]; 2 wt % timolol, 1 wt % disodium phosphate)",release of timolol from silicone microspheres after 1 hour ([3]; 20 wt % drug loading) [µg],"release relative to absence of the pH-adjusting agent ([3]; 20 wt % timolol, 10 wt % Tris)","relationship between the release of timolol and the square root of the time elapsed ([3]; pH 7.4 phosphate buffer, 37° C.)",release of timolol after 1 hour ([3]; timolol and disodium phosphate spray dried together) [µg]
"CC(C)NCC(O)COc1cccc2ccccc12 (stereo not drawn) [propranolol, propranolol hydrochloride]",possible to avoid the initial lag time,equal,increased,remained essentially constant,remained essentially constant,independent of the ionic strength of the dissolution medium,practically unaffected by the surrounding pH,94,–,–,–,–,–,–,–
"CC(C)(C)NC[C@H](O)COc1nsnc1N1CCOCC1 [timolol, timolol maleate]",–,–,–,–,–,–,–,–,27,two times faster,did not affect the release rate,520,two times faster,linear relationship,187

# Reference: patent US5518737A, “Peroral drug delivery system” (priority 1991, dated 1996)
